Experimental findings from article PMC5977019, “NMR, Novel Pharmacological and In Silico Docking Studies of Oxyacanthine and Tetrandrine: Bisbenzylisoquinoline Alkaloids Isolated from Berberis glaucocarpa Roots” (Journal of Analytical Methods in Chemistry, 2018) are described below.

In test [1] the target is T1, urease (jack bean) (Canavalia ensiformis, UniProt P07374). The experiment in a line: indophenol urease assay (ammonia production, […] nm), standard inhibitor. As to conditions: read-out: IC50 ± SEM (μg/mL) (converted). It counts as biochemical.
T1 sequence (P07374 whole entry, looked up): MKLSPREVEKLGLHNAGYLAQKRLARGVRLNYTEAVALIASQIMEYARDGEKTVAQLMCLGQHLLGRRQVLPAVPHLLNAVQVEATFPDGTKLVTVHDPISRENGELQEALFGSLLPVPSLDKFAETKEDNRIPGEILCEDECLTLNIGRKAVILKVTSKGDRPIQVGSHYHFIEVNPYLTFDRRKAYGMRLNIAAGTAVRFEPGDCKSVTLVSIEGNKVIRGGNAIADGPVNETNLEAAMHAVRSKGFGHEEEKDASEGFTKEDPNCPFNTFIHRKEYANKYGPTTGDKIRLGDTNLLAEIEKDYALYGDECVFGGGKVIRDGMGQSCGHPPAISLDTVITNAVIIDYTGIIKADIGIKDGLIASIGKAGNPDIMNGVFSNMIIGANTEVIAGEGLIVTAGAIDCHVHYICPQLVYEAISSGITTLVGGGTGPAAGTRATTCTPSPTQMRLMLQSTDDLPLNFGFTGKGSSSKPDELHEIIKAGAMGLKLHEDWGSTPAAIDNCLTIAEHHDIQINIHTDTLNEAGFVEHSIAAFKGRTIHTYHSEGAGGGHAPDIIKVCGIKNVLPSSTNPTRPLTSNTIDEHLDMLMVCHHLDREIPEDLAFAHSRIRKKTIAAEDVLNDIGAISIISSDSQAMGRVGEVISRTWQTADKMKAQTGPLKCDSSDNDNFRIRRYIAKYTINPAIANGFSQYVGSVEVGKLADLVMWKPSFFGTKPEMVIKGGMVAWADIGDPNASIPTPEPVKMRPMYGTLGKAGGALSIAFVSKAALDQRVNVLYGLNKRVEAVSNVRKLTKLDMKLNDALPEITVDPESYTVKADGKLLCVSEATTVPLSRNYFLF
The target of test [2] is T1, urease (jack bean). The experiment in a line: indophenol urease assay (ammonia production, […] nm). It counts as biochemical.

The structures appear in SMILES notation.

With `NC(N)=S` [thiourea], the IC50 at urease (jack bean) [1] is 215 µM.

`COc1ccc2cc1Oc1ccc(cc1)C[C@H]1c3cc(c(OC)cc3CCN1C)Oc1c(OC)c(OC)cc3c1[C@H](C2)N(C)CC3` [compound 2, tetrandrine]: the IC50 on urease (jack bean) [2] (read-out: IC50 ± SEM (μg/mL) (converted)) was 8.85 µM.

`COc1cc2c3cc1Oc1c(OC)c(OC)cc4c1[C@H](Cc1ccc(cc1)Oc1cc(ccc1O)C[C@H]3N(C)CC2)N(C)CC4` [compound 1, oxyacanthine] showed an IC50 against urease (jack bean) [2] of 10.4 µM.
